The results in this text go back to US20020026053A1, “Novel 3-(substituted) -2- indolinones compounds and use thereof as inhibitors of protein kinase activity” (priority 1997, published 2002).

T1 sequence (P08581 with tags, fused parts or gaps): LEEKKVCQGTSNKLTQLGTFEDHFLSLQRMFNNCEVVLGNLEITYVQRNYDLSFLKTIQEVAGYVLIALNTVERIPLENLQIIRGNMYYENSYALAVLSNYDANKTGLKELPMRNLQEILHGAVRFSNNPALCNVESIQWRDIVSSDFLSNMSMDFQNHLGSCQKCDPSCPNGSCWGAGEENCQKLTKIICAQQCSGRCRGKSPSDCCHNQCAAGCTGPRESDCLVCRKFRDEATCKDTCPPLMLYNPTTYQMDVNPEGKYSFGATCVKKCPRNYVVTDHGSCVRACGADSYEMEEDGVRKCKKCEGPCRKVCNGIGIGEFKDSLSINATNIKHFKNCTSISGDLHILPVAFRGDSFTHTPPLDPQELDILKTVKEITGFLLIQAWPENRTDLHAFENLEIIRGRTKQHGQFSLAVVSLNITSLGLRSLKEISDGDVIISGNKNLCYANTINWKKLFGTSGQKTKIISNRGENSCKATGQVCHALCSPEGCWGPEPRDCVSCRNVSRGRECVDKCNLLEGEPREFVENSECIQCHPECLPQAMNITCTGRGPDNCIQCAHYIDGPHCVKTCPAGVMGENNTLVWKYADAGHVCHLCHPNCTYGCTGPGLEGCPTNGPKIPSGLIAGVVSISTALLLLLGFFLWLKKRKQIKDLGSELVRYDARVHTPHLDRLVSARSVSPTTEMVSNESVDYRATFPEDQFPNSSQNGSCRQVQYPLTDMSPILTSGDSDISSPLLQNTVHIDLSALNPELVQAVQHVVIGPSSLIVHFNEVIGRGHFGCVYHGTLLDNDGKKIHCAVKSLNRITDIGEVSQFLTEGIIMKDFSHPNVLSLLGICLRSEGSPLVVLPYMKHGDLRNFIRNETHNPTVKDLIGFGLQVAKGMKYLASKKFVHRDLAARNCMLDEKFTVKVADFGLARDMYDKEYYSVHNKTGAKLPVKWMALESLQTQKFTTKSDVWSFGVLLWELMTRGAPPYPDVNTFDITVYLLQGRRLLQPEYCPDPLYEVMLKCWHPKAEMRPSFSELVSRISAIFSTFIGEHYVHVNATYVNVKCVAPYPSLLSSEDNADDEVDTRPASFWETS

The assay has as its target T1, Met receptor (EGFR/Met chimeric cells, EMR) (Homo sapiens, UniProt P08581).
T1 construct: expressed in transfected cells; the other entry of the earlier key: EGFR (P00533, Epidermal growth factor receptor)
The assay can be described thus: Met Autophosphorylation Assay. Format: biochemical. The gist of the method:
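Transiently transfected EGFR/Met chimeric (EMR) cells were lysed in HNTG with 1 mM PMSF. Met was captured on plates coated with goat anti-rabbit IgG, then rabbit anti-Met (C-28), using 90 μg lysate/100 μl for 60 min at room temperature. Phosphotyrosine was read by ELISA.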
For `Cc1c(Br)cc(Br)c2c1C(=Cc1ccco1)C(=O)N2` [10718/H10], the “Met Kinase % Inhibition (P.130)” value was found to be 19.9%. With `Cc1ccccc1C=C1C(=O)Nc2ccc(Br)c(C)c21` [10735/C02] the figure was 27.7%; with `Cc1c(Br)cc(Br)c2c1C(=Cc1ccc(Br)s1)C(=O)N2` [10734/H11], 28.7%; with `O=C1Nc2ccc(S(=O)(=O)Nc3ccc(C(F)(F)F)cc3)cc2C1=Cc1ccc(-c2ccccc2)cc1` [10735/E11], 7.2%. For the compound `O=C1Nc2ccc(S(=O)(=O)Nc3ccc(C(F)(F)F)cc3)cc2C1=Cc1cc(F)cc(F)c1` [10735/E04], the “Met Kinase % Inhibition (P.130)” value stood at 85.2%.

For the compound `Cc1c(Br)ccc2c1C(=Cc1ccccc1C#N)C(=O)N2` [10735/C07], the “Met Kinase % Inhibition (P.130)” value was 49.1%. As for `Cc1c(Br)ccc2c1C(=Cc1c(F)cccc1F)C(=O)N2` [10735/C08], the “Met Kinase % Inhibition (P.130)” value came to 49.8%. For the compound `O=C1Nc2ccc(I)cc2C1=Cc1cccc(C(F)(F)F)c1` [10735/B05], the “Met Kinase % Inhibition (P.130)” value is recorded as 83.7%.

For the compound `Cc1c(Br)ccc2c1C(=Cc1ccc(F)c(F)c1)C(=O)N2` [10735/C03], the “Met Kinase % Inhibition (P.130)” value was determined as 66.2%.

Turning to `O=C1Nc2ccc(CCCl)cc2C1=Cc1ccc(F)c(F)c1` [10735/G03], the “Met Kinase % Inhibition (P.130)” value is 24.3%.
